Measurements published in paper PMC11343806 (Journal of Biological Inorganic Chemistry, 2024).

How the values were obtained:
[1] = test system: C. difficile strain VPI10463 (ATCC 43255), metronidazole-sensitive; experiment: Antibacterial effects against C. difficile (anaerobic growth curves, OD600); assay type: cell-based, Clostridioides difficile
Experimental: (§1) (provided by Ulrich Nübel, DSMZ Braunschweig) were maintained in prereduced BHIS medium (37 g/L BHI, oxoid, 5% yeast extract, 1% L-cysteine) in a Coy-Laboratories anaerobic chamber (85% N2, 10% CO2, 5% H2) at 37 °C. Freshly prepared cultures were incubated until the exponential growth phase (OD600 = 0.2–0.4) and were adjusted to 1 × 10^6 cfu/mL before inoculation. The test compounds were dissolved in DMSO and by two-fold dilution steps concentrations in the range from 200 µM to 0.39 µM in BIHS medium were obtained. The solutions (100µL) were added to 100 µL of a diluted C. difficile culture (total volume: 200 µL in BIHS, 5 × 10^5 C. difficile, 100–0.195 µM test compound per well). The OD600-values over a period of 48 h were measured with a LogPhase 600 4-plate reader (BioTek) and compared with blank BHIS.

[2] = test system: C. difficile strain 1296^ T (DSM 1296), metronidazole-sensitive; experiment: as above; assay type: cell-based, Clostridioides difficile; conditions: strain 1296T
Experimental: as §1

[3] = test system: C. difficile strain IB136 (NCTC 14385), metronidazole-resistant; experiment: as above; assay type: cell-based, Clostridioides difficile
Experimental: as §1

[4] = test system: A-549, HT-29, MDA-MB-231 and Vero E6 cells; experiment: Antiproliferative assay, summary over all cell lines; assay type: cell-based; conditions: all four cell lines; for 2c except MDA-MB-231; read-out: IC50 values, antiproliferative effects, all cell lines
Experimental: (§2) The antiproliferative effects were determined according to a previously published procedure. A volume of 100 µL of cell suspension of A549 cells, MDA-MB-231, HT-29 or Vero E6 cells was transferred into the wells of a 96-well plates and incubated at 37 °C under 5% CO2 for 72 h. […] The results were calculated as the mean values of three independent experiments, unless stated otherwise.

[5] = test system: HT-29 colon carcinoma cells; experiment: Antiproliferative assay (crystal violet); assay type: cell-based, human; conditions: 72 h exposure; ± standard deviation, n = 2–4; read-out: IC50, antiproliferative effects, HT-29
Experimental: as §2

[6] = test system: MDA-MB-231 breast cancer cells; experiment: Antiproliferative assay (crystal violet); assay type: cell-based, human; conditions: 96 h exposure; ± standard deviation, n = 2–4; read-out: IC50, antiproliferative effects, MDA-MB-231
Experimental: as §2

A-549 lung cancer cells = experiment: Antiproliferative assay (crystal violet); assay type: cell-based, human; conditions: 72 h exposure; ± standard deviation, n = 2–4; read-out: IC50, antiproliferative effects, A-549
Experimental: as §2

[7] = test system: Vero E6 non-tumorigenic epithelial kidney cells; experiment: Antiproliferative assay (crystal violet); assay type: cell-based, African green monkey; conditions: 72 h exposure; ± standard deviation, n = 2–4; read-out: IC50, antiproliferative effects, Vero E6
Experimental: as §2

[8] = biological target: T1, bacterial TrxR from E. coli (Escherichia coli, UniProt P0A9P4); experiment: Inhibition of bacterial TrxR (E. coli), DTNB/5-TNB assay; assay type: biochemical; conditions: purified enzyme, 75 min incubation at 25 °C; means and standard deviations
T1 construct: purchased Sigma-Aldrich
T1 sequence (P0A9P4 whole entry): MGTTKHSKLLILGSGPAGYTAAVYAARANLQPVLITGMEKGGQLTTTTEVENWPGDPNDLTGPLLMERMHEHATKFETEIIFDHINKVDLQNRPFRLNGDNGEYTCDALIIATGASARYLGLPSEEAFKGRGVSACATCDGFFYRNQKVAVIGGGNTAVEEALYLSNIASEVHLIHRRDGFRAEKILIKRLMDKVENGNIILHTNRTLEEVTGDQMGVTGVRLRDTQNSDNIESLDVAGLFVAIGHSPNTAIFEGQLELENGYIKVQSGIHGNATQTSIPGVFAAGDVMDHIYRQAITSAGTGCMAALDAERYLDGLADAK
Experimental: The TrxR (E.coli) inhibition assay was performed according to a previously published procedure. It is partly based on the procedure developed by Lu et al.[35] and detects the formation of 5-TNB (5-thionitrobenzoic acid). Solutions of E. coli TrxR (35.4 U/mL) and of its substrate thioredoxin (Trx) E. coli (156 µg/mL) (both purchased from Sigma-Aldrich and diluted with distilled water) and fresh stock solutions of the test compounds (in DMF) were prepared (1c was administered as suspension). TE buffer (Tris–HCl 50 mM, EDTA 1 mM, pH 7.5) containing graded concentrations of the respective compounds (20 µL) or buffer without compounds (20 µL, as control) were mixed with TrxR solution (10 µL), Trx solution (10 µL), and a solution of NADPH (200 µM) in TE buffer (100 µL) in a well on a 96-well plate. As blank solution, 200 µM NADPH in TE buffer (100 µL) mixed with a DMF/buffer mixture (40 µL) was used (final concentrations of DMF: 0.5% v/v). The solutions on the 96-well plate were incubated for 75 min at 25 °C with moderate shaking. A volume of 100 µL of a reaction mixture (TE buffer containing 200 µM NADPH and 5 mM DTNB) was added to each well to initiate the reaction. After thorough mixing, the formation of 5-TNB was monitored by a microplate reader at 405 nm in 35 s intervals (10 measurements). The values were corrected by subtraction of the values for the blank solution. The increase in concentration of 5-TNB followed a linear trend (r^2 ≥ 0.990) and the enzymatic activities were calculated as the gradients (increase in absorbance per second) thereof. Absence of interference with the assay components was confirmed by a negative control experiment for each test compound. The highest test compound concentration was used and the enzyme solution was replaced by TE buffer for this purpose. The IC50 values were calculated as the concentration of the compound decreasing the enzymatic activity of the positive control by 50% and are presented as the means and standard deviations of independent repeated experiments.

[9] = test system: aerobic Gram-positive and Gram-negative pathogenic bacteria strains; experiment: MIC, summary over the panel of aerobic bacteria; assay type: cell-based
Experimental: (§3) The following strains were used and maintained at 37 °C in MHB (21 g/L Müller Hinton, pH 7.4) or TSY (30 g/L trypticase soy broth, 3 g/L yeast extract, pH 7.0–7.2) medium. Acinetobacter baumannii (DSM 30007, ATCC 19606) in MHB, Escherichia coli (DSM1116, ATCC 9637) in TSY, Klebsiella pneumoniae (DSM 11678, ATCC33495) in MHB, Pseudomonas aeruginosa PA7 (DSM 24068) in MHB, Enterococcus faecium (DSM 20477, ATCC 19434) in TSY, Staphylococcus aureus MRSA (DSM 11822, ICB 25701) in TSY). Minimum inhibitory concentration (MIC) values were determined following a standardized protocol in broth dilution assays. […] Starting inocula of 2–8 × 10^5 colony-forming units per ml in MHB or TSY media at 37 °C were used, and serial dilutions were carried out in 384-well microtiter plates in duplicate. […] The MIC values for the tested compounds were determined in three independent experiments by a curve-fitting procedure using the GraphPad Prism software (Graphpad Software, Inc.).

[10] = test system: Klebsiella pneumoniae (DSM 11678, ATCC33495); experiment: MIC broth dilution, aerobic bacteria; assay type: cell-based; conditions: 20 h at 37 °C, ± standard error, n ≥ 3, read-out: MIC, K. pneumoniae
Experimental: as §3

[11] = test system: Pseudomonas aeruginosa PA7 (DSM 24068); experiment: MIC broth dilution, aerobic bacteria; assay type: cell-based; conditions: 20 h at 37 °C, ± standard error, n ≥ 3, read-out: MIC, P.aeruginosa
Experimental: as §3

[12] = test system: Enterococcus faecium (DSM 20477, ATCC 19434); experiment: MIC broth dilution, aerobic bacteria; assay type: cell-based; conditions: 20 h at 37 °C, ± standard error, n ≥ 3
Experimental: as §3

[13] = test system: Acinetobacter baumannii (DSM 30007, ATCC 19606); experiment: MIC broth dilution, aerobic bacteria; assay type: cell-based; conditions: 20 h at 37 °C, ± standard error, n ≥ 3
Experimental: as §3

[14] = test system: Staphylococcus aureus MRSA (DSM 11822, ICB 25701); experiment: MIC broth dilution, aerobic bacteria; assay type: cell-based; conditions: 20 h at 37 °C, ± standard error, n ≥ 3
Experimental: as §3

Cc1ncc([N+](=O)[O-])n1CCOC(=O)Cn1[c](=[Au][Cl])n(C)c2ccccc21 [Compound 2c, Chlorido-(1-methyl-3-(2-(2-(2-methyl-5-nitroimidazol-1-yl)ethoxy)-2-oxoethyl)-benzimidazol-2-yliden)gold(I)]
antibacterial effect at 6.25 µM ([1]; strain VPI10463, 6.25 µM, recovery of growth after extended exposure): effective inhibitors
concentration leading to a complete block of bacterial growth without recovery ([1]; strain VPI10463, up to 100 µM, 48 h): blocked bacterial growth at the same concentration
antibacterial effect at 6.25 µM ([2]; 6.25 µM, recovery of growth after extended exposure): effective inhibitors
concentration leading to a complete block of bacterial growth without recovery ([2]; up to 100 µM, 48 h): blocked bacterial growth at the same concentration
concentration leading to a complete block of bacterial growth without recovery ([3]; metronidazole-resistant strain IB136, up to 100 µM, 48 h): blocked bacterial growth at the same concentration
antibacterial effect at 6.25 µM ([3]; resistant strain IB136, 6.25 µM): strong effects with recovery of bacterial proliferation
IC50 [4]: > 60 µM
IC50 [5]: 80.7 ± 5.9 µM
IC50 [6]: 31.8 ± 4.1 µM
IC50 (A-549 lung cancer cells): 81.9 ± 2.8 µM
IC50 [7]: > 95 µM
IC50 [8]: 0.175 ± 0.017 µM
MIC values against Gram-positive strains ([9]; MRSA and E. faecium, except for 1c in MRSA): 37 to 44 µM
activity against Gram-negative strains (in words) ([9]; aerobic conditions): inactive
MIC [10]: > 111.2 µM
MIC [11]: > 111.2 µM
MIC, E. faecium [12]: 43.3 ± 16.0 µM
MIC [13]: > 111.2 µM
MIC, MRSA [14]: 37.1 ± 16.0 µM
solubility in organic solvents (Solubility observations): soluble in most organic solvents
